# Source: paper PMC12566511, “The Evaluation of (1R,4R,7R,10R)-α,α′,α″,α‴-Tetramethyl-1,4,7,10-tetraazacyclododecane-1,4,7,10-tetraacetic Acid (DOTMA) as a Chelator for Zirconium-89” (Molecules, 2025)
# Assay: Biodistribution studies in non-tumor-bearing, normal mice
# Assay type: in vivo, female NIH Swiss mice
# Settings: tail vein, n = 6
# Procedure: Female NIH Swiss mice (6–8 weeks old) were purchased from Inotiv, Lafayette, IN, USA. All animals were acclimated to a 12 h light/dark cycle and received food and water ad libitum for 5 days before any manipulations were performed. All animals were checked by veterinary staff daily to ensure well-being and proper environment and to monitor for signs of distress. Clinical signs of distress in laboratory rodents include decreased activity, pilo-erection, un-groomed appearance, excessive licking and scratching, self-mutilation, abnormal stance, hunched appearance, rapid or shallow respiration, grunting, dilated pupils, aggressiveness towards handler, high-pitched vocalizations, change in feeding activity, and attempts to separate from group. In the event of clinical distress, animals were euthanized after consulting the on-call veterinarian. To minimize suffering during the tail vain injection, animals were kept under deep isoflurane anesthesia. At the end point of the study, animals were anesthetized with isoflurane and were euthanized by cervical dislocation, which is consistent with the recommendations of the American Veterinary Medical Association Guidelines on Euthanasia.
# Biodistribution studies were conducted using a modified literature procedure. Briefly, female NIH Swiss mice (6–8 weeks old, n = 6/cohort; 30 animals total) were injected with [^89Zr]Zr-DOTMA (0.55 MBq (15 μCi)/mouse) via the tail vein and sacrificed at 2, 4, 24, 48, and 72 h p.i. Organs and tissues of interest were excised, weighed, and counted on a gamma counter. The percent injected dose per gram (%ID/g) was calculated by comparison to a weighed, counted standard for each group.
smiles,measurement,setting,value
CC(C(=O)[O-])N1CCN(C(C)C(=O)[O-])CCN(C(C)C(=O)[O-])CCN(C(C)C(=O)[O-])CC1.[89Zr+4] (centres unmarked) [[^89Zr]Zr-DOTMA],Biodistribution (%ID/g) Blood,2 h p.i.,0.011 ± 0.001 %ID/g
same,Biodistribution (%ID/g) Bone,2 h p.i.,0.032 ± 0.006 %ID/g
same,Biodistribution (%ID/g) Fat,2 h p.i.,0.007 ± 0.003 %ID/g
same,Biodistribution (%ID/g) Heart,2 h p.i.,0.021 ± 0.003 %ID/g
same,Biodistribution (%ID/g) Kidney,2 h p.i.,1.053 ± 0.071 %ID/g
same,Biodistribution (%ID/g) Large intestine,2 h p.i.,0.523 ± 0.112 %ID/g
same,Biodistribution (%ID/g) Liver,2 h p.i.,0.238 ± 0.020 %ID/g
same,Biodistribution (%ID/g) Lung,2 h p.i.,0.071 ± 0.006 %ID/g
same,Biodistribution (%ID/g) Muscle,2 h p.i.,0.008 ± 0.003 %ID/g
same,Biodistribution (%ID/g) Pancreas,2 h p.i.,0.011 ± 0.003 %ID/g
same,Biodistribution (%ID/g) Small intestine,2 h p.i.,0.229 ± 0.039 %ID/g
same,Biodistribution (%ID/g) Spleen,2 h p.i.,0.078 ± 0.008 %ID/g
same,Biodistribution (%ID/g) Stomach,2 h p.i.,0.069 ± 0.008 %ID/g
same,Biodistribution (%ID/g) Blood,4 h p.i.,0.008 ± 0.001 %ID/g
same,Biodistribution (%ID/g) Bone,4 h p.i.,0.024 ± 0.004 %ID/g
same,Biodistribution (%ID/g) Fat,4 h p.i.,0.006 ± 0.002 %ID/g
same,Biodistribution (%ID/g) Heart,4 h p.i.,0.019 ± 0.004 %ID/g
same,Biodistribution (%ID/g) Kidney,4 h p.i.,0.689 ± 0.086 %ID/g
same,Biodistribution (%ID/g) Large intestine,4 h p.i.,0.632 ± 0.088 %ID/g
same,Biodistribution (%ID/g) Liver,4 h p.i.,0.123 ± 0.017 %ID/g
same,Biodistribution (%ID/g) Lung,4 h p.i.,0.060 ± 0.005 %ID/g
same,Biodistribution (%ID/g) Muscle,4 h p.i.,0.004 ± 0.002 %ID/g
same,Biodistribution (%ID/g) Pancreas,4 h p.i.,0.010 ± 0.004 %ID/g
same,Biodistribution (%ID/g) Small intestine,4 h p.i.,0.080 ± 0.007 %ID/g
same,Biodistribution (%ID/g) Spleen,4 h p.i.,0.076 ± 0.004 %ID/g
same,Biodistribution (%ID/g) Stomach,4 h p.i.,0.013 ± 0.005 %ID/g
same,Biodistribution (%ID/g) Blood,24 h p.i.,0.005 ± 0.001 %ID/g
same,Biodistribution (%ID/g) Bone,24 h p.i.,0.026 ± 0.004 %ID/g
same,Biodistribution (%ID/g) Fat,24 h p.i.,0.005 ± 0.002 %ID/g
same,Biodistribution (%ID/g) Heart,24 h p.i.,0.009 ± 0.002 %ID/g
same,Biodistribution (%ID/g) Kidney,24 h p.i.,0.077 ± 0.009 %ID/g
same,Biodistribution (%ID/g) Large intestine,24 h p.i.,0.022 ± 0.008 %ID/g
same,Biodistribution (%ID/g) Liver,24 h p.i.,0.018 ± 0.002 %ID/g
same,Biodistribution (%ID/g) Lung,24 h p.i.,0.033 ± 0.004 %ID/g
same,Biodistribution (%ID/g) Muscle,24 h p.i.,0.001 ± 0.000 %ID/g
same,Biodistribution (%ID/g) Pancreas,24 h p.i.,0.003 ± 0.001 %ID/g
same,Biodistribution (%ID/g) Small intestine,24 h p.i.,0.007 ± 0.001 %ID/g
same,Biodistribution (%ID/g) Spleen,24 h p.i.,0.044 ± 0.005 %ID/g
same,Biodistribution (%ID/g) Stomach,24 h p.i.,0.005 ± 0.002 %ID/g
same,Biodistribution (%ID/g) Blood,48 h p.i.,0.004 ± 0.001 %ID/g
same,Biodistribution (%ID/g) Bone,48 h p.i.,0.023 ± 0.004 %ID/g
same,Biodistribution (%ID/g) Fat,48 h p.i.,0.002 ± 0.001 %ID/g
same,Biodistribution (%ID/g) Heart,48 h p.i.,0.004 ± 0.002 %ID/g
same,Biodistribution (%ID/g) Kidney,48 h p.i.,0.021 ± 0.003 %ID/g
same,Biodistribution (%ID/g) Large intestine,48 h p.i.,0.003 ± 0.001 %ID/g
same,Biodistribution (%ID/g) Liver,48 h p.i.,0.008 ± 0.001 %ID/g
same,Biodistribution (%ID/g) Lung,48 h p.i.,0.015 ± 0.002 %ID/g
same,Biodistribution (%ID/g) Muscle,48 h p.i.,0.001 ± 0.001 %ID/g
same,Biodistribution (%ID/g) Pancreas,48 h p.i.,0.001 ± 0.001 %ID/g
same,Biodistribution (%ID/g) Small intestine,48 h p.i.,0.002 ± 0.000 %ID/g
